Laboratory results reported in ChEMBL document CHEMBL1201862, “PubChem BioAssay data set” (2004).
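Following 48 hours of exposure in 96-well plates, responses at five concentrations were used to interpolate endpoints linearly. Here, GI50 denotes the concentration required for 50% inhibition of growth.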 Calls of active or inactive are those of the source. Rule as the data show it: active = GI50 up to about 1.1 µM and inactive = higher.

Columns and labels:
Assay in all cases: inhibition of tumour cell growth, NCI panel, 48 h
MDA-N = system: MDA-N
DMS-114 = system: DMS-114
SNB-78 = system: SNB-78
RXF 631 = system: RXF 631
DMS-273 = system: DMS-273
DLD-1 = system: DLD-1
LXFL 529 = system: LXFL 529
XF498 = system: XF498
HOP-18 = system: HOP-18

Cc1cc(S(=O)(=O)Nc2nc3ccccc3[nH]2)c(S)cc1Cl
GI50 (MDA-N): > 100 µM (inactive)

O=C(O)c1cncc(C(=O)O)c1
GI50 (MDA-N): > 100 µM (inactive)

Cc1cccc(C(C)O)n1 (stereo not drawn)
GI50 (MDA-N): > 100 µM (inactive)

C[C@]12CC[C@H](O)CC1=CC[C@@H]1C2CC[C@]2(C)Nc3c(cnn3-c3ccccc3)CC12 (stereo partly drawn)
GI50 (DMS-114): 2.82 µM (inactive)
GI50 (SNB-78): 8.2 µM (inactive)
GI50 (RXF 631): 0.44 µM (active)
GI50 (DMS-273): 0.869 µM (active)
GI50 (DLD-1): 3.52 µM (inactive)
GI50 (LXFL 529): 4.06 µM (inactive)

CCOC(=O)CCNC(=O)c1cc(C)cc2c1Oc1c(cc(C)cc1C(=O)NCCC(=O)OCC)S2
GI50 (MDA-N): 88.3 µM (inactive)

N#Cc1nc(-c2cccs2)oc1N
GI50 (MDA-N): > 100 µM (inactive)

COc1ccc(C2SCC(=O)N2NC(=O)C(C)Oc2ccccc2C)cc1 (stereo not drawn)
GI50 (MDA-N): 86.7 µM (inactive)

C=C1C[C@@H](O)[C@@H](Br)C(C)(C)[C@]12CCC(C)(Br)C(Cl)C2 (stereo partly drawn)
GI50 (MDA-N): > 50 µM (inactive)

O=C(COC(=O)c1cccc2c(=O)c3ccccc3[nH]c12)Nc1ccc(C(=O)O)cc1
GI50 (DMS-114): 61.8 µM (inactive)
GI50 (SNB-78): 59.3 µM (inactive)
GI50 (RXF 631): > 100 µM (inactive)
GI50 (DLD-1): > 100 µM (inactive)
GI50 (XF498): 29.6 µM (inactive)
GI50 (HOP-18): > 100 µM (inactive)

N#Cc1c2c(c(N=P(c3ccccc3)(c3ccccc3)c3ccccc3)n3c1nc1ccccc13)CCCC2
GI50 (DMS-114): 21.5 µM (inactive)
GI50 (SNB-78): 21.3 µM (inactive)
GI50 (RXF 631): 29 µM (inactive)
GI50 (DMS-273): 14.5 µM (inactive)
GI50 (DLD-1): 32.8 µM (inactive)
GI50 (LXFL 529): 20.6 µM (inactive)
GI50 (HOP-18): 25.9 µM (inactive)

Cc1ccc(S(=O)(=O)N/N=C/c2oc(-c3cccc([N+](=O)[O-])c3)c(-c3cccc([N+](=O)[O-])c3)c2[N+](=O)[O-])cc1
GI50 (RXF 631): 62.1 µM (inactive)
GI50 (DLD-1): 32.2 µM (inactive)
GI50 (LXFL 529): 36.7 µM (inactive)
GI50 (XF498): > 100 µM (inactive)
GI50 (HOP-18): > 100 µM (inactive)

COC(=O)N/N=C(\Cc1ccccc1)CN(C)C
GI50 (DMS-114): > 100 µM (inactive)
GI50 (SNB-78): > 100 µM (inactive)
GI50 (RXF 631): > 100 µM (inactive)
GI50 (DMS-273): > 100 µM (inactive)
GI50 (DLD-1): > 100 µM (inactive)
GI50 (LXFL 529): > 100 µM (inactive)
GI50 (XF498): > 100 µM (inactive)

CCN(CC)CCNC(=O)c1nn(C)c(=S)[nH]c1=S
GI50 (DMS-114): > 100 µM (inactive)
GI50 (SNB-78): > 100 µM (inactive)
GI50 (DMS-273): > 100 µM (inactive)
GI50 (DLD-1): > 100 µM (inactive)
GI50 (LXFL 529): > 100 µM (inactive)
GI50 (XF498): > 100 µM (inactive)
GI50 (HOP-18): > 100 µM (inactive)

CCOC(=O)COc1ccc(/C=C/C(=O)c2ccc(OC)cc2)cc1
GI50 (MDA-N): 26.7 µM (inactive)

CCCCn1c(C)c(C(=O)OCC)c2cc(OCc3ccc(C(=O)Nn4c(C)ccc4C)cc3)c(Br)cc21
GI50 (MDA-N): > 100 µM (inactive)

CN1C2CCC1CN(CCOC(c1ccc(F)cc1)c1ccc(F)cc1)C2
GI50 (MDA-N): 36 µM (inactive)

Nc1ccc(C(=O)O)cc1.Nc1nc(N)c2nc[nH]c2n1
GI50 (MDA-N): 13.9 µM (inactive)

c1ccc(C2=Nc3cccc4cccc(c34)N2)cc1
GI50 (MDA-N): 45.3 µM (inactive)

Cc1ccc(/C=N/Nc2cnccn2)s1
GI50 (MDA-N): 99.3 µM (inactive)

C1=C(c2ccccc2)SC=C(c2ccccc2)S1
GI50 (MDA-N): 6.17 µM (inactive)

CC[n+]1c(/C=C/c2ccc(N(CCCl)CCCl)cc2)ccc2cc(I)ccc21
GI50 (DMS-114): 0.607 µM (active)
GI50 (SNB-78): 0.895 µM (active)
GI50 (RXF 631): 1.77 µM (inactive)
GI50 (DMS-273): 0.525 µM (active)
GI50 (DLD-1): 1.58 µM (inactive)
GI50 (LXFL 529): 0.409 µM (active)
GI50 (HOP-18): 1.02 µM (active)

CCOP(=O)(Nc1ccc(-c2ccc(N)cc2)cc1)OCC
GI50 (MDA-N): > 100 µM (inactive)

O=C1C2=C(C(c3ccccc3)=C1c1ccccc1)c1ccccc1C1(c3ccccc3)C2=C(O)C(c2ccccc2)=C1c1ccccc1 (stereo not drawn)
GI50 (DMS-114): > 100 µM (inactive)
GI50 (SNB-78): > 100 µM (inactive)
GI50 (RXF 631): > 100 µM (inactive)
GI50 (DMS-273): > 100 µM (inactive)
GI50 (DLD-1): > 100 µM (inactive)
GI50 (LXFL 529): > 100 µM (inactive)
GI50 (HOP-18): > 100 µM (inactive)

CC(C)=CCC[C@@H](C)C1=C(O)C(=O)C(C)=C(Nc2ccccc2Br)C1=O
GI50 (MDA-N): 14.1 µM (inactive)

O=C(CCl)Nc1ccc(-c2nc3ccccc3s2)cc1
GI50 (MDA-N): 2.49 µM (inactive)

O=c1c2cc(I)ccc2nc(SCc2nncs2)n1Cc1ccccc1
GI50 (MDA-N): 23 µM (inactive)

O=C(O)CCSc1ncnc2[nH]cnc12
GI50 (MDA-N): > 100 µM (inactive)

COc1cccc(C(C#N)NC23CC4CC(CC(C4)C2)C3)c1 (stereo not drawn)
GI50 (MDA-N): > 100 µM (inactive)

O=C(O)C1C2C=CC(O2)C1C(=O)Nc1ncccn1 (stereo not drawn)
GI50 (MDA-N): > 100 µM (inactive)

CC(C)(C)CC(C)(C)c1cc2c(O)c(c1)Cc1cc(C(C)(C)CC(C)(C)C)cc(c1O)Cc1cc(C(C)(C)CC(C)(C)C)cc(c1O)Cc1cc(C(C)(C)CC(C)(C)C)cc(c1O)Cc1cc(C(C)(C)CC(C)(C)C)cc(c1O)Cc1cc(C(C)(C)CC(C)(C)C)cc(c1O)C2
GI50 (DMS-114): > 100 µM (inactive)
GI50 (SNB-78): > 100 µM (inactive)
GI50 (RXF 631): > 100 µM (inactive)
GI50 (DMS-273): > 100 µM (inactive)
GI50 (DLD-1): > 100 µM (inactive)
GI50 (LXFL 529): > 100 µM (inactive)
GI50 (XF498): > 100 µM (inactive)

COc1ccc(C2=NN(C(C)=O)c3nc4ccccc4nc3O2)cc1
GI50 (DMS-114): 42.2 µM (inactive)
GI50 (RXF 631): 23 µM (inactive)
GI50 (DMS-273): 42.1 µM (inactive)
GI50 (DLD-1): 25.4 µM (inactive)
GI50 (LXFL 529): 31.4 µM (inactive)
GI50 (XF498): 19.1 µM (inactive)
GI50 (HOP-18): 17.7 µM (inactive)

CC1C(=O)C23OC[C@@]1(C)C1(O)CC[C@@H](C)[C@]21CC3=O (stereo partly drawn)
GI50 (MDA-N): > 100 µM (inactive)
